The source of these data is patent US20240116985A1, “STAPLED PEPTIDES AND METHODS THEREOF” (priority 2020, published 2024).

Assay [1] concerns the target T1, full-length beta-Catenin (Uniprot ID P35222) (Homo sapiens, UniProt P35222).
T1 construct: 10 nM full-length beta-Catenin (Uniprot ID P35222)
T1 sequence (P35222 1-781): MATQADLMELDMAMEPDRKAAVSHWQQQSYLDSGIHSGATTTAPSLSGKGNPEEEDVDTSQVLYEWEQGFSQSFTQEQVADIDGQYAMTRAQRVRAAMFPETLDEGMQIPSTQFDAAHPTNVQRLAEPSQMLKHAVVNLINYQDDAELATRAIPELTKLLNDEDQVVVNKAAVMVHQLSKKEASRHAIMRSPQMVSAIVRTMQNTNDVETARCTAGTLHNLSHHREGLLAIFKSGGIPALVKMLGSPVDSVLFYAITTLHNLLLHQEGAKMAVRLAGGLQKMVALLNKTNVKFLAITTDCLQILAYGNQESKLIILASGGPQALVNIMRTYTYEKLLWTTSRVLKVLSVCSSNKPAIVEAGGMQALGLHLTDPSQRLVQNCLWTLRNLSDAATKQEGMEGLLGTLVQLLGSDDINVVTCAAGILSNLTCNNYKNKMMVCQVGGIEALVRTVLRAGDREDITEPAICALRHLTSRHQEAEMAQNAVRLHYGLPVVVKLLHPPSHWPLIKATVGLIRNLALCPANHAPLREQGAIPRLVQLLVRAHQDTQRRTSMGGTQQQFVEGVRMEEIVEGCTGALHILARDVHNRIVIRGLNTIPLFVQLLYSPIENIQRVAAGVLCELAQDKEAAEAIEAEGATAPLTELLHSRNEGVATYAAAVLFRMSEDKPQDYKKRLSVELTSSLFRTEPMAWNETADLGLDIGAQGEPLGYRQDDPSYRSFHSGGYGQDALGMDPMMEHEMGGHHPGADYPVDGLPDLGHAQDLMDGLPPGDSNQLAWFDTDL
The experiment in a line: Fluorescence polarization IC50 (beta-catenin / 5FAM-TCF4 10-53 competition). It counts as binding. Background: Fluorescence polarisation rises when a labelled molecule tumbles more slowly, as on binding a larger partner.

In assay [2] the target is T2, beta-catenin/TCF4 engagement (Homo sapiens, UniProt P35222).
T2 construct: expressed in transfected cells; host or cells: HEK293
T2 sequence (P35222 1-781): T1 sequence (P35222 1-781)
In words: Nano-BRET target engagement assay (B-cat-Halo & TCF4-Luc in HEK293 cells). The format is cell-based. Conditions: read-out: NanoBRET Abs IC50. (In general: Bioluminescence resonance energy transfer reports proximity on the nanometre scale.)

The mark [3] stands for this setting: fluorescence polarization; read-out: beta-Catenin FP IC50.

Like-named read-outs stand apart in the source and are kept apart here.

Turning to `CC(=O)N1CCC[C@]12CC=CCC1(CC=CCCCOC(=O)N3CC[C@@](C(=O)N[C@@H](Cc4ccsc4)C(=O)N[C@@H](Cc4csc5ccccc45)C(=O)N[C@@H](CCC(N)=O)C(N)=O)(C3)NC(=O)[C@H](CC(C)C)NC(=O)[C@H](Cc3ccccc3)NC(=O)[C@H](C)NC(=O)[C@H](C)NC(=O)[C@H](CC(=O)O)NC(=O)[C@H](CC(=O)O)NC1=O)NC(=O)[C@H](CC(C)(C)C)NC(=O)[C@H](CC(=O)O)NC2=O` (stereo partly drawn) [I-2156, Ac-PL3-Asp-Npg-B3-Asp-Asp-Ala-Ala-Phe-Leu-PyrS2-3Thi-BztA-Gln-NH2], the half-inhibitory concentration (IC50) in assay [1] (setting [3]) was 387 nM; in assay [2], greater than 20000 nM.
As for `CC(=O)N1CCC[C@]12CCCCC1(CCCCCCCOC(=O)N3CC[C@@](C(=O)N[C@@H](Cc4ccsc4)C(=O)N[C@@H](Cc4csc5ccccc45)C(=O)N[C@@H](CCC(N)=O)C(N)=O)(C3)NC(=O)[C@H](CC(C)C)NC(=O)[C@H](Cc3ccccc3)NC(=O)[C@H](C)NC(=O)[C@H](C)NC(=O)[C@H](CC(=O)O)NC(=O)[C@H](CC(=O)O)NC1=O)NC(=O)[C@H](CC(C)(C)C)NC(=O)[C@H](CC(=O)O)NC2=O` (stereo partly drawn) [I-2161, Ac-PL3-Asp-Npg-B3-Asp-Asp-Ala-Ala-Phe-Leu-PyrS3-3Thi-BztA-Gln-NH2], the IC50 in assay [1] (setting [3]) is 855 nM; in assay [2], greater than 20000 nM.
For the compound `CC(=O)N1CCC[C@]12CCCCC1(CCCCCCCCOC(=O)N3CC[C@](C(=O)N[C@@H](Cc4ccsc4)C(=O)N[C@@H](Cc4csc5ccccc45)C(=O)N[C@@H](CCC(N)=O)C(N)=O)(C3)NC(=O)[C@H](CC(C)C)NC(=O)[C@H](Cc3ccccc3)NC(=O)[C@H](C)NC(=O)[C@H](C)NC(=O)[C@H](CC(=O)O)NC(=O)[C@H](CC(=O)O)NC1=O)NC(=O)[C@H](CC(C)(C)C)NC(=O)[C@H](CC(=O)O)NC2=O` (stereo partly drawn) [I-2162, Ac-PL3-Asp-Npg-B3-Asp-Asp-Ala-Ala-Phe-Leu-PyrS4-3Thi-BztA-Gln-NH2], the values for the IC50 in assay [1] (setting [3]) and in assay [2] were 1160 nM and greater than 20000 nM, respectively.
The corresponding values for `CC(=O)N1CCC[C@]12CC=CCCCC1(CCCC=CCCCOC(=O)N3CC[C@@](C(=O)N[C@@H](Cc4ccccc4)C(=O)N[C@@H](Cc4csc5ccccc45)C(=O)N[C@@H](CCO)C(N)=O)(C3)NC(=O)[C@H](CC(N)=O)NC(=O)[C@H](Cc3ccccc3)NC(=O)[C@H](C)NC(=O)[C@H](CCCCNC(C)C)NC(=O)[C@H](CCC(N)=O)NC(=O)[C@H](CC(=O)O)NC1=O)NC(=O)[C@H](CC1CCCCC1)NC(=O)[C@H](CC(N)=O)NC2=O` (stereo partly drawn) [I-2167, Ac-PL3-Asn-Cha-B5-Asp-Gln-iPrLys-Ala-Phe-Asn-PyrS2-Phe-BztA-Hse-NH2] are 199 nM and greater than 20000 nM.
The corresponding values for `CC(=O)N1CCC[C@]12CC=CCCCC1(CCCC=CCCCOC(=O)N3CC[C@@](C(=O)N[C@@H](Cc4ccccc4C(N)=O)C(=O)N[C@@H](Cc4csc5ccccc45)C(=O)N[C@@H](CCO)C(N)=O)(C3)NC(=O)[C@H](CC(N)=O)NC(=O)[C@H](Cc3ccccc3)NC(=O)[C@H](C)NC(=O)[C@H](CCCCNC(C)C)NC(=O)[C@H](CCC(N)=O)NC(=O)[C@H](CC(=O)O)NC1=O)NC(=O)[C@H](CC1CCCCC1)NC(=O)[C@H](CC(N)=O)NC2=O` (stereo partly drawn) [I-2168, Ac-PL3-Asn-Cha-B5-Asp-Gln-iPrLys-Ala-Phe-Asn-PyrS2-2cbmf-BztA-Hse-NH2] are 212 nM and greater than 20000 nM.
The corresponding values for `CC(=O)N1CCC[C@]12CC=CCCCC1(CCCC=CCCCOC(=O)N3CC[C@@](C(=O)N[C@@H](Cc4ccsc4)C(=O)N[C@@H](Cc4ccc(Cl)c(Cl)c4)C(=O)N[C@@H](CCC(N)=O)C(N)=O)(C3)NC(=O)[C@H](CC(N)=O)NC(=O)[C@H](Cc3ccccc3)NC(=O)[C@H](C)NC(=O)[C@H](C)NC(=O)[C@H](CC(=O)O)NC(=O)[C@H](CC(=O)O)NC1=O)NC(=O)[C@H](CC(C)(C)C)NC(=O)[C@H](CC(=O)O)NC2=O` (stereo partly drawn) [I-2182, Ac-PL3-Asp-Npg-B5-Asp-Asp-Ala-Ala-Phe-Asn-PyrS2-3Thi-34C1F-Gln-NH2] are 5 nM and 11100 nM.
In the case of `CC(=O)N1CCC[C@]12CC=CCCCC1(CCCC=CCCCOC(=O)N3CC[C@@](C(=O)N[C@@H](Cc4ccsc4)C(=O)N[C@@H](Cc4ccc(Cl)c(Cl)c4)C(=O)N[C@@H](CCC(N)=O)C(N)=O)(C3)NC(=O)[C@H](CC(C)C)NC(=O)[C@H](Cc3ccccc3)NC(=O)[C@H](C)NC(=O)[C@H](C)NC(=O)[C@H](CC(=O)O)NC(=O)[C@H](CC(=O)O)NC1=O)NC(=O)[C@H](CC(C)(C)C)NC(=O)[C@H](CC(=O)O)NC2=O` (stereo partly drawn) [I-2183, Ac-PL3-Asp-Npg-B5-Asp-Asp-Ala-Ala-Phe-Leu-PyrS2-3Thi-34C1F-Gln-NH2], the IC50 stood at 5 nM in assay [1] (setting [3]) and 5000 nM in assay [2].
Take `CC(=O)N1CCC[C@]12CC=CCCCC1(CCCC=CCCCOC(=O)N3CC[C@@](C(=O)N[C@@H](Cc4ccsc4)C(=O)N[C@@H](Cc4csc5ccccc45)C(=O)N[C@@H](CCC(N)=O)C(N)=O)(C3)NC(=O)[C@H](CC(C)C)NC(=O)[C@@H](Cc3cccc(S(=O)(=O)F)c3)NC(=O)[C@H](C)NC(=O)[C@H](C)NC(=O)[C@H](CN(CC(=O)O)CC(F)(F)F)NC(=O)[C@H](CC(=O)O)NC1=O)NC(=O)[C@H](CC(C)(C)C)NC(=O)[C@H](CC(=O)O)NC2=O` (stereo partly drawn) [I-2185, Ac-PL3-Asp-Npg-B5-Asp-TfeGA-Ala-Ala-3SO2F-Leu-PyrS2-3Thi-BztA-Gln-NH2]: the IC50 in assay [1] (read-out: beta-Catenin FP IC50; fluorescence polarization) is 42 nM; in assay [2], 6100 nM.
In the case of `CC(=O)N1CCC[C@]12CC=CCCCC1(CCCC=CCCCOC(=O)N3CC[C@@](C(=O)N[C@@H](Cc4ccsc4)C(=O)N[C@@H](Cc4csc5ccccc45)C(=O)NC(CCCCNC(=O)c4ccc5c(c4)B(O)OC5)C(N)=O)(C3)NC(=O)[C@H](CC(C)C)NC(=O)[C@H](Cc3ccccc3)NC(=O)[C@H](C)NC(=O)[C@H](C)NC(=O)[C@H](CN(CC(=O)O)CC(F)(F)F)NC(=O)[C@H](CC(=O)O)NC1=O)NC(=O)[C@H](CC(C)(C)C)NC(=O)[C@H](CC(=O)O)NC2=O` (stereo partly drawn) [I-2187, Ac-PL3-Asp-Npg-B5-Asp-TfeGA-Ala-Ala-Phe-Leu-PyrS2-3Thi-BztA-BnBoroleK-NH2], the IC50 in assay [1] (read-out: beta-Catenin FP IC50) came to 28 nM; in assay [2], 10800 nM.
Consider `CC(=O)N1CCC[C@]12CC=CCCCC1(CCCC=CCCCOC(=O)N3CC[C@@](C(=O)N[C@@H](Cc4ccsc4)C(=O)N[C@@H](Cc4csc5ccccc45)C(=O)N[C@@H](C)C(N)=O)(C3)NC(=O)[C@H](CC(C)C)NC(=O)[C@H](Cc3ccccc3)NC(=O)[C@H](C)NC(=O)[C@H](CC(=O)N(C)C)NC(=O)[C@H](Cc3cccc(C(=O)O)c3)NC(=O)[C@H](CC(=O)O)NC1=O)NC(=O)[C@H](CC(C)(C)C)NC(=O)[C@H](CC(=O)O)NC2=O` (stereo partly drawn) [I-2188, Ac-PL3-Asp-Npg-B5-Asp-3COOHF-Me2Asn-Ala-Phe-Leu-PyrS2-3Thi-BztA-Ala-NH2], for which the figures for the IC50 in assay [1] (setting [3]) and in assay [2] were 11 nM and 7600 nM, respectively.
The corresponding values for `CCCC[C@@H]1NC(=O)[C@H](Cc2cccc(C(=O)O)c2)NC(=O)[C@H](CC(=O)O)NC(=O)C2(CCCC=CCCCOC(=O)N3CC[C@@](C(=O)N[C@@H](Cc4ccsc4)C(=O)N[C@@H](Cc4csc5ccccc45)C(=O)N[C@H](C(N)=O)C(C)C)(C3)NC(=O)[C@H](CC(C)C)NC(=O)[C@H](Cc3ccccc3)NC(=O)[C@H](C)NC1=O)CCCC=CC[C@]1(CCCN1C(C)=O)C(=O)N[C@@H](CC(=O)O)C(=O)N[C@@H](CC(C)(C)C)C(=O)N2` (stereo partly drawn) [I-2189, Ac-PL3-Asp-Npg-B5-Asp-3COOHF-nLeu-Ala-Phe-Leu-PyrS2-3Thi-BztA-Val-NH2] are 83 nM and 33400 nM.
Taken in the same sequence, the figures for `CC(=O)N1CCC[C@]12CC=CCCCC1(CCCC=CCCCOC(=O)N3CC[C@@](C(=O)N[C@@H](Cc4ccsc4)C(=O)N[C@@H](Cc4csc5ccccc45)C(=O)N[C@H](C(N)=O)C(C)C)(C3)NC(=O)[C@H](CC(C)C)NC(=O)[C@H](Cc3ccccc3)NC(=O)[C@H](C)NC(=O)[C@H](CO)NC(=O)[C@H](Cc3cccc(C(=O)O)c3)NC(=O)[C@H](CC(=O)O)NC1=O)NC(=O)[C@H](CC(C)(C)C)NC(=O)[C@H](CC(=O)O)NC2=O` (stereo partly drawn) [I-2190, Ac-PL3-Asp-Npg-B5-Asp-3COOHF-Ser-Ala-Phe-Leu-PyrS2-3Thi-BztA-Val-NH2] were 28 nM and 33400 nM.
With `CC(=O)N1CCC[C@]12CC=CCCCC1(CCCC=CCCCOC(=O)N3CC[C@@](C(=O)N[C@@H](Cc4ccsc4)C(=O)N[C@@H](Cc4csc5ccccc45)C(=O)N[C@H](C(N)=O)C(C)C)(C3)NC(=O)[C@H](CC(C)C)NC(=O)[C@H](Cc3ccccc3)NC(=O)[C@H](C)NC(=O)[C@H](CC(=O)N(C)C)NC(=O)[C@H](Cc3cccc(C(=O)O)c3)NC(=O)[C@H](CC(=O)O)NC1=O)NC(=O)[C@H](CC(C)(C)C)NC(=O)[C@H](CC(=O)O)NC2=O` (stereo partly drawn) [I-2191, Ac-PL3-Asp-Npg-B5-Asp-3COOHF-Me2Asn-Ala-Phe-Leu-PyrS2-3Thi-BztA-Val-NH2], the IC50 in assay [1] (setting [3]) was determined as 16 nM; in assay [2] it was 29500 nM.

As usually defined, the IC50 is the point on the concentration scale where inhibition reaches its midpoint.
